The structures appear in SMILES notation.

15-PGDH, sequence (P15428 whole entry): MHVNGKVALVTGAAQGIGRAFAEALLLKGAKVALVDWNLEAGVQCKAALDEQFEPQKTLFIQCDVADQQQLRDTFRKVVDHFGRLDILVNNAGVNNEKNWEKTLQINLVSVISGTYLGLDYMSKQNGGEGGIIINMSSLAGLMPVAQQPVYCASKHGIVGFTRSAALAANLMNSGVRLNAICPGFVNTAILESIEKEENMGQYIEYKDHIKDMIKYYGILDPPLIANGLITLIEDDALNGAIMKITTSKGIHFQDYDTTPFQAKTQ

The test concerns the target 15-PGDH (Homo sapiens (Human), UniProt P15428). As to the kind of experiment: Assay for the activities of 15-PGDH inhibitors (formation of NADH at 340 nm). To be noted: purified 15-PGDH enzyme, 21 μM PGE2, 0.25 mM NAD+, pH 7.5; concentration inhibiting 50% of 15-PGDH activity. The test is classed as biochemical.
In turn, `O=C1NC(=O)/C(=C/c2ccc(OCC3CCC(C(=O)O)CC3)cc2)S1` (stereo not shown) [Derivative 111, 4-({4-[(Z)-(2,4-dioxo-1,3-thiazolidin-5-ylidene)methyl]phenoxy}methyl)cyclohexane carboxylic acid] registered a half-inhibitory concentration (IC50) of 9330 nM. For `O=C1NC(=O)C(Cc2ccc(OCCC3CCCCC3)cc2)S1` (stereo not shown) [Derivative 113, 5-(4-(2-cyclohexylethoxy)benzyl)thiazolidine-2,4-dione] the value was 977 nM; for `O=C1NC(=O)C(Cc2ccc(OCC3CCCCC3)cc2)S1` (stereo not shown) [Derivative 114, 5-(4-(cyclohexylmethoxy)benzyl)thiazolidine-2,4-dione], 4060 nM; for `O=C1NC(=O)C(Cc2ccc(OCC3CCCC3)cc2)S1` (stereo not shown) [Derivative 115, 5-(4-(cyclopentylmethoxy)benzyl)thiazolidine-2,4-dione], 854 nM. For `O=C1NC(=O)C(Cc2ccc(OCc3ccccc3)cc2)S1` (stereo not shown) [Derivative 116, 5-(4-(benzyloxy)benzyl)thiazolidine-2,4-dione] the value was 5250 nM; for `O=C1NC(=O)C(Cc2ccc(OCCC3CCCC3)cc2)S1` (stereo not shown) [Derivative 118, 5-(4-(2-cyclopentylethoxy)benzyl)thiazolidine-2,4-dione], 2210 nM. For `O=C1NC(=O)C(Cc2ccc(OCCN3CCS(=O)(=O)CC3)cc2)S1` (stereo not shown) [Derivative 119, 5-(4-(2-thiomorpholine-1,1-dioxideethoxy)benzyl)-2,4-thiazolidinedione] the value was 5210 nM; for `O=C1NC(=O)C(Cc2ccc(OCCC3CCCCC3)c(Cl)c2)S1` (stereo not shown) [Derivative 120, 5-(3-chloro-4-(2-cyclohexylethoxy)benzyl)thiazolidine-2,4-dione], 173 nM. Molecule `Cc1cc(CC2SC(=O)NC2=O)ccc1OCCC1CCCCC1` (stereo not shown) [Derivative 121, 5-(4-(2-cyclohexylethoxy)-3-methylbenzyl)thiazolidine-2,4-dione] yielded an IC50 of 397 nM. `O=C1NC(=O)C(Cc2ccc(OCCCC3CCCCC3)c(Cl)c2)S1` (stereo not shown) [Derivative 122, 5-(3-chloro-4-(cyclohexylpropoxy)benzyl)thiazolidine-2,4-dione]: the midpoint of inhibition, the IC50, lay at 143 nM. For `O=C1NC(=O)C(Cc2ccc(OCC3CCCC3)cc2)S1` (stereo not shown) [Derivative 123, 5-(4-(cyclopentylmethoxy)benzyl)thiazolidine-2,4-dione] the value was 205 nM. `O=C1NC(=O)C(Cc2ccc(OCc3ccccc3)cc2)S1` (stereo not shown) [Derivative 124, 5-(4-(benzyloxy)benzyl)thiazolidine-2,4-dione]: the IC50 turned out to be 1260 nM.

The molecule `O=C1NC(=O)C(Cc2ccc(OCCN3CCS(=O)(=O)CC3)cc2)S1` (stereo not shown) [Derivative 126, 5-(4-(2-thiomorpholine-1,1-Dioxideethoxy)benzyl)-2,4-thiazolidinedione] registered a concentration for half-maximal inhibition (IC50) of 1390 nM. `O=C1NC(=O)C(Cc2ccc(OCCC3CCCCC3)cc2Cl)S1` (stereo not shown) [Derivative 127, 5-(2-chloro-4-(2-cyclohexylethoxy)benzyl)thiazolidine-2,4-dione] displayed a half-maximal inhibitory concentration (IC50) of 158 nM.

Molecule `O=C1NC(=O)C(Cc2ccc(OCc3ccc(-c4ccccc4)cc3)cc2)S1` (stereo not shown) [Derivative 129, 5-(4-(biphenyl-4-ylmethoxy)benzyl)thiazolidine-2,4-dione] displayed a concentration for half-maximal inhibition (IC50) of 1080 nM. This IC50 lies about 6.8-fold higher than the previous one. For `O=C1NC(=O)C(Cc2ccc(OCCC3CCCC3)cc2)S1` (stereo not shown) [Derivative 130, 5-(4-(2-cyclopentylethoxy)benzyl)thiazolidine-2,4-dione] the value was 777 nM.

(Values after patent US8637558B2 (Industry-Academic Cooperation Foundation, Chosun University, priority 2008, dated 2014).)
